Source: patent US20210113522A1, “COUMARIN DERIVATIVE AS ANTI-ASTHMATIC AGENT, PHARMACEUTICAL COMPOSITION THEREOF, ITS PREPARATION AND USE” (I-NOVA MEDICINSKA ISTRAZIVANJA D.O.O., priority 2017, published 2021)

Experiments:
L929 = assay: MTT cytotoxicity / cell survival in murine fibroblast line L929; type: cell-based
Method: (§1) Cytotoxicity of compound 1 was determined through the study of cell growth and viability by the methods of determination of maximal non-toxic concentration (MNC) and concentration required for cell viability by 50% (CC50). […] Cytotoxic concentration at 50% (CC50) was defined as the concentration of the test substance 1 at which 50% of the cells die as a result of toxicity of the test substance.
(§2) Evaluation of cytotoxicity was an important part of the assessment of anti-asthmatic activity of compound 1 since its beneficial therapeutic effect at asthma and other inflammatory respiratory diseases should be selective with little or no effects on the metabolism of host cells. The study of cytotoxicity of compound 1 was performed on two types of cell lines of murine fibroblasts L20B and L929 from European collection of cell cultures (ECACC).
(§3) Cell viability was estimated by a modification of the 3-(4,5-dimethylthiazol-2-yl)-2,5-diphenyltetrazolium bromide (MTT) assay which is one of the most frequently used methods for measuring cell proliferation and cytotoxicity; see literature reference 12: • 12) T. Mosmann: Rapid colorimetric assay for cellular growth and survival: Application to proliferation and cytotoxicity assays, J. Immunol. Methods 65 (1983) 55-63.
(§4) Cell viability was reported as the percentage (%) of viable cells in the wells treated with different concentrations of the test compound 1, compared to the control cells untreated with the substance. Maximal non-toxic concentration (MNC) and cytotoxic concentration for 50% of cells (CC50) were calculated from the constructed “dose-cellular survival” curve.
(§5) Cytotoxicity of compound 1 was determined through the study of cell growth and viability by the methods of determination of maximal non-toxic concentration (MNC) and concentration required for cell viability by 50% (CC50).
(§6) The compound 1 (Mw=410.02) under study were first dissolved in DMSO (Sigma-Aldrich) to a concentration of 0.1 mol/L (0.1 M) as a stockade later diluted in cell growth medium Dulbecco's Modified Eagle Medium (DMEM; Sigma-Aldrich) with 2% heat inactivated fetal bovine serum.
(§7) The study of cytotoxicity of compound 1 was performed on two types of murine fibroblasts cell lines: L20B and L929 from European collection of cell cultures (ECACC). Cells were routinely maintained as adherent cell cultures in DMEM medium and containing 10% Fetal bovine serum (FBS; Gibco), 2 mM L-glutamine (Sigma-Aldrich), 100 U/mL penicillin G sodium (Sigma-Aldrich), 100 μg/mL streptomycin sulphate (Sigma-Aldrich) at 37° C. in a humidified air incubator containing 5% carbon dioxide (CO2). Cultivation of the cells was continued with direct monitoring every two or three days using a phase contrast microscope. The cells are harvested in 1× trypsin/EDTA solution (Sigma-Aldrich). Cells were passages 1:3-1:5 at a density around 5-6·10^4 cells/mL, while the passage was re-suspended repeatedly.
(§8) Methods of determining cell growth, cell viability, maximal non-toxic concentration (MNC) and concentrations, required cell viability by 50% (CC50): Cell viability was estimated by a modification of the MTT [3-(4,5-dimethylthiazol-2-yl)-2,5-diphenyltetrazolium bromide] assay; see literature reference 12. The MTT reduction assay is one of the most frequently used methods for measuring cell proliferation and cytotoxicity. The intensity of colour (measured spectrophotometrically) of the MTT formazan produced by living, metabolically active cells by measuring the activity of succinate dehydrogenase, mostly located in mitochondria was proportional to the number of live cells present. MTT was a yellow water-soluble tetrazolium dye that was reduced by live, but not dead cells to a purple formazan product that was insoluble in aqueous solutions.
(§9) Each cell line was plated at an appropriate density (7.5·10^3 cells/well for L20B cell culture and 4·10^4 cells/well for L929 cell culture) in 96-well plates (Costar Corning; USA) for 24 h. […]

[1] = as above; type: cell-based; conditions: mouse; L929, 48 h; read-out: CC50 (cytotoxic concentration for 50% cells)
Method: as §1, §2, §3, §4, §5, §6, §7, §8, §9

L20B = assay: MTT cytotoxicity / cell survival in murine fibroblast line L20B; type: cell-based
Method: as §1, §2, §3, §4, §5, §6, §7, §8, §9

[2] = as above; type: cell-based; conditions: mouse; L20B, 48 h; read-out: CC50 (cytotoxic concentration for 50% cells)
Method: as §1, §2, §3, §4, §5, §6, §7, §8, §9

[3] = system: mucus production in the airway; assay: OVA model: airway mucus production (PAS staining); type: in vivo, Balb/c mice; conditions: vs mice that received no treatment; 1 2 mg/kg therapeutically or preventively, beclomethasone 1 mg/kg
Method: Enhanced airway mucus production results from airway inflammation and is hallmark of allergic asthma. Thus, mechanisms that suppress immune responses in the lung could result in suppression of mucus production. Mucus production was measured 2 days after i.n. challenge in experimental mice that were treated with compound 1 or beclomethasone (as standard) and lung sections were stained with periodic acid-Schiff stain (PAS). Mucus production in the lung was quantitated immunohistologically by evaluation of mucus-positive epithelia. […]
Mucus production was measured 2 days after i.n. challenge in experimental mice that were treated with compound 1 or beclomethasone (as standard) and lung sections were stained with PAS. Mucus production in the lung was quantitated immunohistologically by evaluation of mucus-positive epithelia.

O=c1oc2cc(O)cc(O)c2c(O)c1-c1coc2c1c(=O)oc1cc(O)cc(O)c12 [Compound 1, 7,9-dihydroxy-3-(4,5,7-trihydroxy-2-oxo-2H-chromene-3-yl)-4H-furo[3,2-c]chromen-4-one]
Cell survival, cell culture L929 (L929; 0.0001 mg/mL of 1, 48 h): 100.6% | Cell survival, cell culture L929 (L929; 0.001 mg/mL of 1, 48 h): 98.8% | Cell survival, cell culture L929 (L929; 0.01 mg/mL of 1, 48 h): 95.3% | Cell survival, cell culture L929 (L929; 0.05 mg/mL of 1, 48 h): 87.1% | Cell survival, cell culture L929 (L929; 0.1 mg/mL of 1, 48 h): 89.3% | Cell survival, cell culture L929 (L929; 0.5 mg/mL of 1, 48 h): 83.2% | Cell survival, cell culture L929 (L929; 1 mg/mL of 1, 48 h): 76.1% | Cell survival, cell culture L929 (L929; 5 mg/mL of 1, 48 h): 64.9% | Cell survival, cell culture L929 (L929; 10 mg/mL of 1, 48 h): 50.5% | Cytotoxicity against L929 relative to L20B according to MNC values (L929; 48 h): 10 × | Cytotoxicity against L929 versus L20B according to CC50 values (L929; 48 h): the same cytotoxicity | Cytotoxicity (overall, in words) (L929; L929, 48 h): low cytotoxicity | Typical cytopathology characterizing the toxic effect (microscopic morphology of monolayers) (L929; L929, 48 h, 0.0001-10 mg/mL): not registered | CC50 at 48 h [1]: 10 mM | Cell survival, cell culture L20B (L20B; 0.0001 mg/mL of 1, 48 h): 103.3% | Cell survival, cell culture L20B (L20B; 0.001 mg/mL of 1, 48 h): 99.7% | Cell survival, cell culture L20B (L20B; 0.01 mg/mL of 1, 48 h): 94.5% | Cell survival, cell culture L20B (L20B; 0.05 mg/mL of 1, 48 h): 91.3% | Cell survival, cell culture L20B (L20B; 0.1 mg/mL of 1, 48 h): 88.2% | Cell survival, cell culture L20B (L20B; 0.5 mg/mL of 1, 48 h): 85.6% | Cell survival, cell culture L20B (L20B; 1 mg/mL of 1, 48 h): 72.4% | Cell survival, cell culture L20B (L20B; 5 mg/mL of 1, 48 h): 60.2% | Cell survival, cell culture L20B (L20B; 10 mg/mL of 1, 48 h): 48.5% | Cytotoxicity (overall, in words) (L20B; L20B, 48 h): low cytotoxicity | Typical cytopathology characterizing the toxic effect (microscopic morphology of monolayers) (L20B; L20B, 48 h, 0.0001-10 mg/mL): not registered | CC50 at 48 h [2]: 9 mM | Mucin production in the airway (PAS) [3]: significant reduction
